Results published in patent publication US8148391B2 (Cephalon, Inc., priority 2006, dated 2012).
pIC50: −log10 of the molar value. Where two headings read alike, the source gives them in different places.

Experiments:
[1] = target: T1, c-Met (cytoplasmic domain) (Homo sapiens, UniProt P08581); experiment: c-Met Kinase Assay (same methods as for ALK, with modifications); assay type: biochemical
T1 construct: 10 ng/mL c-Met (cytoplasmic domain, Invitrogen Corporation #PV3143); purchased Invitrogen Corporation PV3143
T1 sequence (P08581 956-1390 limits assumed): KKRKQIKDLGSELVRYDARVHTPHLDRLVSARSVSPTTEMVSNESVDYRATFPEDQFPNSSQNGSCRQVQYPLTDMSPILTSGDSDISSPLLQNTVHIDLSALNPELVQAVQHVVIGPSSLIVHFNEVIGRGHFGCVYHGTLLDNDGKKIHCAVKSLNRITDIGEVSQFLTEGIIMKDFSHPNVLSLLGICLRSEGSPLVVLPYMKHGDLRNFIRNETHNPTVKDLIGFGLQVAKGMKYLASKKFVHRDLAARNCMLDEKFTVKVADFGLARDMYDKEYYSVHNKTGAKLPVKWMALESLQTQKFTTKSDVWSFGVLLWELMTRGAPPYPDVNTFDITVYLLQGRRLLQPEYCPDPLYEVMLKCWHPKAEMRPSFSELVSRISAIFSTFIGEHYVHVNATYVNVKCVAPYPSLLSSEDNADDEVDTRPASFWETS
Procedure, shortened: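 Europium-labeled PT66 antibody (Eu-N1) detects substrate phosphorylation on wells coated with phospholipase C-γ at 10 μg/mL. The kinase, the cytoplasmic domain of c-Met at 10 ng/mL, starts the reaction, which proceeds 15 minutes at 37° C.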

[2] = target: T2, baculovirus-expressed ALK (Homo sapiens, UniProt Q9UM73); experiment: ALK Kinase Assay (ELISA-type, time-resolved fluorescence); assay type: biochemical
T2 construct: host or cells: baculovirus expression system
T2 sequence (Q9UM73 19-1620): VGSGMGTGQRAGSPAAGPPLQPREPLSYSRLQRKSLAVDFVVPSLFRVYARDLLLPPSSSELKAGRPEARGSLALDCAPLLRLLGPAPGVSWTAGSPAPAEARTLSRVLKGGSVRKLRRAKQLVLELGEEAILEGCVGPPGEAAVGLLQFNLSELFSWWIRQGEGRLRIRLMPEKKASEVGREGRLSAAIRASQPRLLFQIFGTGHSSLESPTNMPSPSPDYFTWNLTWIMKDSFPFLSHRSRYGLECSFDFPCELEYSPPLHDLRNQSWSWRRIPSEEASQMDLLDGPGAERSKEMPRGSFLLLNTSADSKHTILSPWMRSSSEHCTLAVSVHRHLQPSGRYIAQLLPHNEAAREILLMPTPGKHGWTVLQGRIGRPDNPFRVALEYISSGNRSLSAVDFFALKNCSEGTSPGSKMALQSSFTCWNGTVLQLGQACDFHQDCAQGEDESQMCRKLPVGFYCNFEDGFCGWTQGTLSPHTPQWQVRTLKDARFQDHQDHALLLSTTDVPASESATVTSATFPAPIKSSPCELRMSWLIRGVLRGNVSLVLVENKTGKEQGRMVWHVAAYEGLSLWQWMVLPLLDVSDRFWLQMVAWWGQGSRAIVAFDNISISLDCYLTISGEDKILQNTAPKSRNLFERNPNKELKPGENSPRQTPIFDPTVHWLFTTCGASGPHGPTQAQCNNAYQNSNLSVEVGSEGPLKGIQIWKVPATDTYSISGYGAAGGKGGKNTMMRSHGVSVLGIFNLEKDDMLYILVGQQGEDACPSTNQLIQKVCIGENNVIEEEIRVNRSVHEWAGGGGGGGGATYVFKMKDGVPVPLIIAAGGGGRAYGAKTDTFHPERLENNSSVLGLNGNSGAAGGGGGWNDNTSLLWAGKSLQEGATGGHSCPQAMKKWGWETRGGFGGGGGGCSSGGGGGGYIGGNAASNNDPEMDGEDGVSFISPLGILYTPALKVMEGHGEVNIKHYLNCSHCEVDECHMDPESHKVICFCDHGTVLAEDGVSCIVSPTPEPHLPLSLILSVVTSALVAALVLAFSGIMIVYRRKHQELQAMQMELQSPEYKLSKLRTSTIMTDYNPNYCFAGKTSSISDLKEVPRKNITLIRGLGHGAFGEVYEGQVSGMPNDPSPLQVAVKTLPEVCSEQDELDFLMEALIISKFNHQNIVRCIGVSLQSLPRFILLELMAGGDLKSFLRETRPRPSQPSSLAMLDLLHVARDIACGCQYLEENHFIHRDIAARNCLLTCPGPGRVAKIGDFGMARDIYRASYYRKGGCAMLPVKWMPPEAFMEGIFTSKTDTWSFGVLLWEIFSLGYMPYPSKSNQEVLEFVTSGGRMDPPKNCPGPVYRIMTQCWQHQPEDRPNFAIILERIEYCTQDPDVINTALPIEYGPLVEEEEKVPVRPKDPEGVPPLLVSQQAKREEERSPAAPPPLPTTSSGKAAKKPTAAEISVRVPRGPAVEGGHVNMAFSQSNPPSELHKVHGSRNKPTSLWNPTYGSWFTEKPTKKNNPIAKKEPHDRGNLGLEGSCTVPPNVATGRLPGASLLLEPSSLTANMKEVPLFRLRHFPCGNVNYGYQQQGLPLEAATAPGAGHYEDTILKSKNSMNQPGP
Procedure, shortened: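 Plates coated with phospholipase C-γ substrate (10 μg/mL in TBS); reaction started with 30 ng/ml ALK and run 15 min at 37° C. Phosphorylated substrate detected with Eu-N1-labeled PT66 antibody. IC50 from sigmoidal variable-slope fit of percent inhibition vs log concentration.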

[3] = c-Met kinase inhibition, 1 μM ATP, read-out: cMet Activity
[4] = ALK kinase inhibition, 1 μM ATP, read-out: ALK Activity
[5] = 1 μM ATP (Km level), read-out: cMet Activity (c-Met Kinase Inhibition, IC50)
[6] = 1 μM ATP (Km level), read-out: ALK Activity (ALK Kinase Inhibition, IC50)
[7] = c-Met kinase inhibition, 1 μM ATP (Km level), read-out: cMet Activity
[8] = ALK kinase inhibition, 1 μM ATP (Km level), read-out: ALK Activity

pIC50 [1, 3] | pIC50 [2, 4] | SMILES | further results
> 7.00 | 6.00 to 7.00 | CCN1CC(O)(CO)COc2cc(Nc3ncc(Cl)c(Nc4c(F)cccc4C(=O)NC)n3)ccc21 (stereo not drawn) [Example 1736, 2-[5-Chloro-2-(9-ethyl-7-hydroxy-7-hydroxymethyl-6,7,8,9-tetrahydro-5-oxa-9-aza-benzocyclohepten-3-ylamino)-pyrimidin-4-ylamino]-3-fluoro-N-methyl-benzamide] | –
5.00 to 6.00 | > 7.00 | CCN([C@@H]1CCCC[C@H]1Nc1nc(Nc2ccc3c(c2)C(C)(C)CCC(=O)N3)ncc1Cl)S(C)(=O)=O [Example 1675, N-{(1R,2R)-2-[5-Chloro-2-(5,5-dimethyl-2-oxo-2,3,4,5-tetrahydro-1H-benzo[b]azepin-7-ylamino)-pyrimidin-4-ylamino]-cyclohexyl}-N-ethyl-methanesulfonamide] | –
> 7.00 | 6.00 to 7.00 | C#CCNC(=O)c1cc(F)cc(F)c1Nc1nc(Nc2ccc3c(c2)CCN(CCOC)CC3)ncc1Cl [Example 1728, 2-{5-Chloro-2-[3-(2-methoxy-ethyl)-2,3,4,5-tetrahydro-1H-benzo[d]azepin-7-ylamino]-pyrimidin-4-ylamino}-3,5-difluoro-N-prop-2-ynyl-benzamide] | –
6.00 to 7.00 | 6.00 to 7.00 | CNC(=O)c1cccc(F)c1Nc1nc(Nc2ccc3c(c2)N(C(=O)CN(C)C)CCCC3(C)C)ncc1Cl [Example 1630, 2-{5-Chloro-2-[1-(2-dimethylamino-acetyl)-5,5-dimethyl-2,3,4,5-tetrahydro-1H-benzo[b]azepin-8-ylamino]-pyrimidin-4-ylamino}-3-fluoro-N-methyl-benzamide] | –
5.00 to 6.00 | > 7.00 | CN(C)[C@@H]1CCN(S(=O)(=O)c2ccccc2Nc2nc(Nc3ccc4c(c3)NC(=O)CCC4(C)C)ncc2Cl)C1 [Example 1625, 8-{5-Chloro-4-[2-((R)-3-dimethylamino-pyrrolidine-1-sulfonyl)-phenylamino]-pyrimidin-2-ylamino}-5,5-dimethyl-1,3,4,5-tetrahydro-benzo[b]azepin-2-one] | –
> 7.00 | 6.00 to 7.00 | CNC(=O)c1scc(C)c1Nc1nc(Nc2ccc3c(c2)C(C)(C)NC(=O)CC3)ncc1Cl [Example 1835, 3-(5-Chloro-2-(1,1-dimethyl-3-oxo-2,3,4,5-tetrahydro-1H-benzo[c]azepin-8-ylamino)pyrimidin-4-ylamino)-N,4-dimethylthiophene-2-carboxamide] | –
5.00 to 6.00 | > 7.00 | CCN1CCCOc2cc(Nc3ncc(Cl)c(N[C@@H]4CCCC[C@H]4NS(C)(=O)=O)n3)c(F)cc21 [Example 1687, N-{(1R,2R)-2-[5-Chloro-2-(9-ethyl-2-fluoro-6,7,8,9-tetrahydro-5-oxa-9-aza-benzocyclohepten-3-ylamino)-pyrimidin-4-ylamino]-cyclohexyl}-methanesulfonamide] | –
6.00 to 7.00 | 6.00 to 7.00 | CNC(=O)c1sccc1Nc1nc(Nc2ccc3c(c2)OCCCN3C(=O)CN2CCCC2)ncc1Cl [Example 1715, 3-{5-Chloro-2-[9-(2-pyrrolidin-1-yl-acetyl)-6,7,8,9-tetrahydro-5-oxa-9-aza-benzocyclohepten-3-ylamino]-pyrimidin-4-ylamino}-thiophene-2-carboxylic acid methylamide] | –
< 5.00 | > 7.00 | CCN1CC(=O)Nc2cc(Nc3ncc(Cl)c(Nc4ccccc4S(=O)(=O)C(C)C)n3)c(OC)cc2C1 [Example 1660, 8-{5-Chloro-4-[2-(propane-2-sulfonyl)-phenylamino]-pyrimidin-2-ylamino}-4-ethyl-7-methoxy-1,3,4,5-tetrahydro-benzo[e][1,4]diazepin-2-one] | –

The next lines start with the compound.

SMILES | pIC50 [1, 3] | pIC50 [2, 4] | further results
O=C1CCCc2ccc(Nc3ncc(Cl)c(Nc4ccccc4S(=O)(=O)N4CCC(O)C4)n3)cc2N1 (stereo not drawn) [Example 1493, 8-{5-Chloro-4-[2-(3-hydroxy-pyrrolidine-1-sulfonyl)-phenylamino]-pyrimidin-2-ylamino}-1,3,4,5-tetrahydro-benzo[b]azepin-2-one] | > 7.00 | > 7.00 | –
C=CCN1CCNC(=O)c2cccc(Nc3ncc(Cl)c(Nc4ccccc4C(=O)NC)n3)c21 [Example 545, 2-[2-(1-Allyl-5-oxo-2,3,4,5-tetrahydro-1H-benzo[e][1,4]diazepin-9-ylamino)-5-chloro-pyrimidin-4-ylamino]-N-methyl-benzamide] | – | – | pIC50 [1, 5]: < 5.00; pIC50 [2, 6]: 5.00 to 6.00
CNC(=O)c1ccccc1Nc1nc(Nc2ccc3c(c2)C(=O)NCCO3)ncc1Cl [Example 1880, 2-[5-Chloro-2-(5-oxo-2,3,4,5-tetrahydro-benzo[f][1,4]oxazepin-7-ylamino)-pyrimidin-4-ylamino]-N-methyl-benzamide] | – | – | pIC50 [1, 7]: > 7.00; pIC50 [2, 8]: > 7.00
COc1cc2c(cc1Nc1ncc(Cl)c(Nc3ccc(N4CCOCC4)cc3-n3cccn3)n1)CCN(CC(=O)N(C)C)CC2 [Example 626, 2-{7-[5-Chloro-4-(4-morpholin-4-yl-2-pyrazol-1-yl-phenylamino)-pyrimidin-2-ylamino]-8-methoxy-1,2,4,5-tetrahydro-benzo[d]azepin-3-yl}-N,N-dimethyl-acetamide] | – | – | pIC50 [1, 5]: < 5.00; pIC50 [2, 6]: > 7.00
COc1cc(N2CCOCC2)ccc1Nc1nc(Nc2ccc3c(c2)N(C(C)=O)CCCC3(C)C)ncc1Cl [Example 1598, 1-{8-[5-Chloro-4-(2-methoxy-4-morpholin-4-yl-phenylamino)-pyrimidin-2-ylamino]-5,5-dimethyl-2,3,4,5-tetrahydro-benzo[b]azepin-1-yl}-ethanone] | 5.00 to 6.00 | 6.00 to 7.00 | –
COCCN1CCc2ccc(Nc3ncc(C(F)(F)F)c(N[C@H]4[C@@H](C(N)=O)[C@@H]5C=C[C@H]4C5)n3)cc2CC1 [Example 934, (1S,2S,3R,4R)-3-{2-[3-(2-Methoxy-ethyl)-2,3,4,5-tetrahydro-1H-3-benzazepin-7-ylamino]-5-trifluoromethyl-pyrimidin-4-ylamino}-bicyclo[2.2.1]hept-5-ene-2-carboxylic acid amide] | – | – | pIC50 [1, 5]: > 7.00; pIC50 [2, 6]: > 7.00
CCS(=O)(=O)N[C@@H]1CCCC[C@H]1Nc1nc(Nc2ccc3c(c2)CCN(CCOC)CC3)ncc1Cl [Example 453, Ethanesulfonic acid ((1R,2R)-2-{5-chloro-2-[3-(2-methoxy-ethyl)-2,3,4,5-tetrahydro-1H-benzo[d]azepin-7-ylamino]-pyrimidin-4-ylamino}-cyclohexyl)-amide] | – | – | pIC50 [1, 7]: 5.00 to 6.00; pIC50 [2, 8]: > 7.00
CNS(=O)(=O)c1ccccc1Nc1nc(Nc2ccc3c(c2)COC[C@@H]2CCCN32)ncc1Cl [Example 13, 2-{5-Chloro-2-[(S)-(2,3,3a,4-tetrahydro-1H,6H-5-oxa-10b-aza-benzo[e]azulen-8-yl)amino]-pyrimidin-4-ylamino}-N-methyl-benzenesulfonamide] | – | – | pIC50 [1, 7]: 5.00 to 6.00; pIC50 [2, 8]: > 7.00
CNC(=O)c1cccc(F)c1Nc1nc(Nc2ccc3c(c2)CCCC(=O)N3CCOC)ncc1Br [Example 1472, 2-{5-Bromo-2-[1-(2-methoxy-ethyl)-2-oxo-2,3,4,5-tetrahydro-1H-benzo[b]azepin-7-ylamino]-pyrimidin-4-ylamino}-3-fluoro-N-methyl-benzamide] | > 7.00 | > 7.00 | –
CNC(=O)c1ccccc1Nc1nc(Nc2ccc3c(c2)CCN(S(C)(=O)=O)CC3)ncc1Cl [Example 42, 2-[5-Chloro-2-(3-methanesulfonyl-2,3,4,5-tetrahydro-1H-benzo[d]azepin-7-ylamino)-pyrimidin-4-ylamino]-N-methyl-benzamide] | – | – | pIC50 [1, 7]: > 7.00; pIC50 [2, 8]: > 7.00
COc1c(Nc2ncc(Cl)c(Nc3ccccc3S(=O)(=O)C(C)C)n2)ccc2c1CCC(N1CCN(C)CC1)CC2 (racemic) [Example 914, 5-Chloro-N*2*-[1-methoxy-7-(4-methyl-piperazin-1-yl)-6,7,8,9-tetrahydro-5H-benzocyclohepten-2-yl]-N*4*-[2-(propane-2-sulfonyl)-phenyl]-pyrimidine-2,4-diamine] | – | – | pIC50 [1, 5]: 5.00 to 6.00; pIC50 [2, 6]: > 7.00
CNC(=O)c1cccc(C)c1Nc1nc(Nc2ccc3c(c2)CCN(CCOC)CC3)ncc1C(F)(F)F [Example 922, 2-{2-[3-(2-Methoxyethyl)-2,3,4,5-tetrahydro-1H-benzo[d]azepin-7-ylamino]-5-trifluoromethylpyrimidin-4-ylamino}-3,N-dimethylbenzamide] | – | – | pIC50 [1, 5]: > 7.00; pIC50 [2, 6]: 6.00 to 7.00
COc1cc(N2CCOCC2)ccc1Nc1nc(Nc2ccc3c(c2OC)CCC(NCCO)CC3)ncc1Cl (stereo not drawn) [Example 705, 2-{2-[5-Chloro-4-(2-methoxy-4-morpholin-4-yl-phenylamino)-pyrimidin-2-ylamino]-1-methoxy-6,7,8,9-tetrahydro-5H-benzocyclohepten-7-ylamino}-ethanol] | – | – | pIC50 [1, 5]: < 5.00; pIC50 [2, 6]: > 7.00
COCC(COC)N1CCc2cc(Nc3ncc(Cl)c(NC4(CC(N)=O)CCCCC4)n3)c(OC)cc2CC1 [Example 848, 2-(1-{5-Chloro-2-[8-methoxy-3-(2-methoxy-1-methoxymethyl-ethyl)-2,3,4,5-tetrahydro-1H-benzo[d]azepin-7-ylamino]-pyrimidin-4-ylamino}-cyclohexyl)-acetamide] | – | – | pIC50 [1, 5]: < 5.00; pIC50 [2, 6]: 6.00 to 7.00
CCN1CC2CCC(C1)c1cc(Nc3ncc(Cl)c(Nc4ccccc4S(=O)(=O)NC)n3)ccc12 (stereo not drawn) [Example 272, 2-[5-Chloro-2-(10-ethyl-10-aza-tricyclo[6.3.2.0*2,7*]trideca-2,4,6-trien-4-ylamino)-pyrimidin-4-ylamino]-N-methyl-benzenesulfonamide] | – | – | pIC50 [1, 7]: 6.00 to 7.00; pIC50 [2, 8]: > 7.00
